Measurements taken from US7825151B2, “Hexahydro-cyclooctyl pyrazole cannabinoid modulators” (priority 2005, dated 2010).

System: DSS induced colitis
Assay: Dextran sulfate sodium (DSS) induced colitis model
Assay type: in vivo, Female Balb/c mice
Conditions: for % Inh (Macro), % inhibition of colitis: macroscopic score
Text: In the distal colon, the DSS colitis model is characterized by a discontinuous pattern of mucosal epithelial damage, infiltration of inflammatory cells (including macrophages, neutrophils and lymphocytes) into the mucosa and submucosa, […] wet weight of the colon, shrinkage of the colon length and diarrhea (see, Blumberg R. S., Saubermann L. J. and Strober W., Animal models of mucosal inflammation and their relation to human inflammatory bowel disease, Current Opinion in Immunology, 1999, Vol. 11: 648-656; Egger B., Bajaj-Elliott M., MacDonald T. T., Inglin R., Eysselein, V. E. and Buchler M. W., Characterization of acute murine dextran sodium sulphate colitis: Cytokine profile and dose dependency, Digestion, 2000, Vol. 62: 240-248; Stevceva L., Pavli P., Husband A. J. and Doe, W. F., The inflammatory infiltrate in the acute stage of the dextran sulphate sodium induced colitis: B cell response differs depending on the percentage of DSS used to induce it, BMC Clinical Pathology, 2001, Vol 1: 3-13; and Diaz-Granados, Howe K., Lu J. and McKay D. M., Dextran sulfate sodium-induced colonic histopathology, but not altered epithelial ion transport, is reduced by inhibition of phosphodiesterase activity, Amer. J. Pathology, 2000, Vol. 156: 2169-2177).
Female Balb/c mice (Taconic Farms, Germantown, N.Y.) (10-13 weeks old) were provided with a solution of 5% DSS (45 kD molecular weight, ICN chemicals, Newport, Calif.) in tap water ad libitum over a 7-day period. The DSS solution was replenished daily and the amount consumed was measured.
The mice (10 per treatment group) were orally administered a test compound on the day of colitis induction and then daily thereafter.
Six days after the initial DSS administration, the last test compound dose was administered.
Seven days after the initial DSS administration, the animals were sacrificed. The colons were resected, examined for signs of inflammation, weighed after removing fecal contents and the length from the aboral end of the cecum to the anus was measured. The fecal contents were examined for signs of diarrhea. The distal colon between the 1st and the 4th centimeter was removed and placed in 10% neutral buffered formalin for histological analysis.
The macroscopic observations of colon inflammation (a measure of colon damage), colon length and stool consistency and appearance were assigned a score and used to evaluate colitis severity.
The three observation scores for each colon were combined, whereby a combined score of 0 represents a normal colon and a combined score of 11 represents a maximally affected colon. Statistical analyses were performed in Graphpad Prism 4.0 using ANOVA.
Histological analyses of tissues consisted of staining paraffin-embedded tissue sections with hematoxylin-eosin dye. The tissues were examined using light microscopy by an investigator who was blinded to the sample groups.
The microscopic observations of epithelial damage, cellular infiltration and damage or alteration of smooth muscle architecture (a measure of muscle damage) were assigned a score and used to evaluate colitis severity.
The scores for each colon were combined, whereby a combined score of 0 represents a normal colon and a combined score of 9 represents a maximally affected colon. […]
The Macroscopic Score and Microscopic Score results for each treatment group were each combined into a mean score and expressed as % inhibition of colitis (% Inh). […] ND represents Not Determined.

In the case of `O=C(NCC12CC3CC(CC(C3)C1)C2)c1nn(C2CCCCC2)c2c1CCCCCC2` [Cpd 2, 1-cyclohexyl-4,5,6,7,8,9-hexahydro-1H-cyclooctapyrazole-3-carboxylic acid (adamantan-1-ylmethyl)-amide], the “% Inh (Macro), % inhibition of colitis” value (1 mg/kg oral daily) is reported as −4.3 ± 12.9%, the “% Inh (Macro), % inhibition of colitis” value (5 mg/kg oral daily) is reported as 21.9 ± 15.2% and the “% Inh (Micro), % inhibition of colitis” value (5 mg/kg oral daily, microscopic score) is reported as 75.7 ± 8.9%. The “% Inh (Macro), % inhibition of colitis” value (10 mg/kg oral daily) was 50.5 ± 9.0% and the “% Inh (Macro), % inhibition of colitis” value (20 mg/kg oral daily) was 31.6 ± 8.5%.
